Common to all, as to assay: NCI anticancer screen, dose series, 48 h
Assay [1] relates to HT29 colon.
For assay [2], the system named is SR leukemia.
For assay [3], the system named is SW-620 colon.
The test system of assay [4] is COLO 205 colon.
For assay [5], the system named is NCI-H522 lung.
For assay [6], the system named is RPMI-8226 leukemia.
Assay [7] has as its system ACHN renal.
The test system of assay [8] is RXF 393 renal.
In assay [9] the test system is KM12 colon.
Assay [10] concerns EKVX NSCLC.
Assay [11] deals with SK-MEL-5 melanoma.
For assay [12], the system named is SNB-75 CNS.
In assay [13] the test system is OVCAR-4 ovarian.
In assay [14] the test system is A498 renal.
In assay [15] the test system is M14 melanoma.
In assay [16] the test system is SF-268 CNS.
Assay [17] relates to HCT-15 colon.
Assay [18] concerns DU-145 prostate.
Assay [19] has as its system MCF7 breast.
Assay [20] deals with MDA-MB-435.

Drawing on PubChem BioAssay (NCI), this text covers TGI for 16 compounds.

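Each compound was tested at five concentrations against cells in 96-well plates for 48 hours. At the TGI there is no net growth.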 A value given as a limit tells only on which side of the number the result lay.

As to `CN1Cc2cc3c(cc2-c2ccccc21)OCO3`, the TGI in assay [1], in assay [2], in [3], in assay [4], in assay [5] and in assay [6] was more than 100 µM throughout. The TGI in assay [7], in [8], in assay [9], in assay [10], in [11] and in assay [12] was more than 100 µM throughout. Moreover, the TGI in assay [13], in assay [14], in assay [15] and in [16] was more than 100 µM throughout.
For `Cc1ccc2c(=O)cc(-c3ccsc3)[nH]c2n1`, the TGI in assay [1] was more than 100 µM; in assay [17], more than 62.9 µM; in [3], more than 21.1 µM; in [18], more than 89.8 µM; in assay [4] it was 12.8 µM; in assay [5], more than 27.3 µM. Also, the TGI in [7] is more than 100 µM; in [8], more than 31 µM; in assay [9], more than 100 µM; in assay [10], more than 100 µM; in assay [11], more than 28.5 µM; in [12] it was 35 µM. Further, the TGI in assay [13] was more than 100 µM; in assay [14], more than 100 µM; in assay [19] it was more than 100 µM; in assay [15], more than 58.1 µM; in assay [16], more than 100 µM.
Take `COc1ccc2c(ccc3c(COC(=O)NC(C)C)c(COC(=O)NC(C)C)n(C)c32)c1`: the TGI was 26.5 µM in assay [1]; more than 100 µM in assay [2]; 28.9 µM in assay [17]; 32.8 µM in assay [3]; 22.6 µM in [4]; 12.8 µM in assay [5]. Moreover, the TGI was more than 100 µM in assay [6]; 7.13 µM in assay [7]; 22.2 µM in [8]; 25.4 µM in assay [9]; 44.8 µM in [10]; 44.1 µM in assay [20]. Also, the TGI in assay [11] came to 28.4 µM; in assay [12], 15.8 µM; in assay [13], 28 µM; in assay [14], 21 µM; in assay [19] it was 93.5 µM; in assay [15] it was 22.1 µM. The same compound returned a TGI in assay [16] of 29.7 µM.
As to `O=c1c2cc([N+](=O)[O-])ccc2n2n1CCCC2`, the TGI in assay [1], in [2], in assay [17], in [3], in assay [18] and in assay [4] was more than 100 µM each time. The TGI in assay [5], in assay [6], in [7], in assay [8], in assay [9] and in [10] was more than 100 µM each time. Moreover, the TGI in assay [20], in assay [11], in assay [12], in assay [13], in [14] and in assay [15] was more than 100 µM in each case. Further, in [16], the TGI is more than 100 µM.
`O=[N+]([O-])c1c(C=Nc2ccccc2)oc(-c2ccc3c(c2)OCO3)c1-c1ccc2c(c1)OCO2`: the TGI in [1], in assay [2], in [17], in [3], in assay [4] and in [5] was more than 100 µM each time. Besides, the TGI in assay [6], in [7], in assay [8], in assay [9], in assay [11] and in [12] was more than 100 µM in each case. The TGI in assay [13], in assay [15] and in assay [16] was more than 100 µM throughout.
`CCCCCCCC(=O)OCC1OC(OC)C(NC(=O)N(CCCl)N=O)C(O)C1O` (stereo not given): the TGI in assay [1] was found to be 50.3 µM; in assay [2] it was 23.9 µM; in assay [17], 15.5 µM; in assay [3], 18.9 µM; in [4] it was 30.8 µM; in [5] it was 16 µM. In addition, the TGI in assay [6] is 53.1 µM; in [7], more than 100 µM; in [8] it was 34.3 µM; in assay [9], 27.7 µM; in [10] it was more than 83.9 µM; in assay [11] it was 35.8 µM. Besides, the TGI is 53.3 µM in assay [12], more than 100 µM in assay [13], 56.8 µM in assay [14] and 21.6 µM in [15].
With `Cc1nc(C(N)=S)sc1C(=O)CC(=O)C(=O)Nc1nc2ccccc2[nH]1`, the TGI in assay [1], in [2], in assay [17], in assay [3], in assay [5] and in assay [6] was more than 100 µM in each case. The TGI in [7], in assay [8], in [9], in assay [10], in assay [20] and in assay [11] was more than 100 µM in each case. Further, the TGI in assay [12], in assay [13], in assay [14], in assay [19], in [15] and in assay [16] was more than 100 µM in each case.
In the case of `O=c1[nH]cnc2c1CCCN2`, the TGI in assay [1], in [2], in assay [17], in assay [3], in [4] and in assay [5] was more than 100 µM each time. For the same compound, the TGI in assay [6], in assay [7], in [8], in assay [9], in assay [10] and in assay [11] was more than 100 µM each time. For the same compound, the TGI in [12], in assay [15] and in assay [16] was more than 100 µM throughout.
Take `COc1cc(/C=C2\C(=O)N(C(=O)c3ccc(NC(C)=O)cc3)N=C2C)ccc1O`: the TGI in assay [1], in [2], in [3], in assay [4], in assay [5] and in assay [6] was more than 100 µM each time. Moreover, the TGI in assay [7], in assay [9], in [10], in assay [11], in assay [12] and in [13] was more than 100 µM in each case. The TGI in assay [15] and in assay [16] was more than 100 µM in each case.
`Cc1ccc(/C=C2\Cc3cccc(C)c3C2=O)c(C(=O)O)c1`: the TGI in assay [1] is more than 100 µM; in assay [2] it was more than 100 µM; in assay [17] it was more than 100 µM; in assay [3], more than 100 µM; in assay [18], more than 100 µM; in assay [5], 60.8 µM. The TGI in [6] was more than 100 µM; in assay [7], 88.1 µM; in assay [8], more than 100 µM; in [9], more than 100 µM; in assay [10], more than 100 µM; in assay [11] it was more than 100 µM. Further, the TGI in assay [12] is more than 100 µM; in assay [13], 52.9 µM; in assay [14], more than 100 µM; in assay [15], more than 100 µM; in assay [16] it was more than 100 µM.
As to `CCCCCCCCCCCCCCCCOCC(CCl)OP(=O)(O)OP(=O)(O)OCC1OC(n2ccc(N)nc2=O)C(O)C1O` (stereo not given), the TGI in assay [1], in assay [17], in assay [3], in assay [4], in [5] and in assay [6] was more than 100 µM throughout. For the same compound, the TGI in [7], in [8], in [9], in [10], in [20] and in [11] was more than 100 µM each time. Also, the TGI in [12] was 22 µM; in [13], more than 100 µM; in assay [14], more than 100 µM; in assay [19], more than 100 µM; in [15] it was more than 100 µM; in assay [16], more than 100 µM.
With `Brc1cc2c(cc1C1SCCS1)OCO2`, the TGI in [1], in assay [2], in assay [17], in assay [3], in assay [5] and in assay [6] was more than 100 µM each time. For the same compound, the TGI in [7], in assay [9], in assay [10], in assay [11], in assay [12] and in [13] was more than 100 µM each time. In addition, the TGI in assay [14], in assay [15] and in assay [16] was more than 100 µM throughout.
For `COc1ccccc1/C=C1\CCC(CCN2CCOCC2)C1=O` (stereo not given), the TGI in [1], in [2], in assay [17], in assay [3], in assay [6] and in assay [7] was more than 100 µM throughout. In addition, the TGI in assay [8], in [9], in assay [10], in [11], in [12] and in assay [13] was more than 100 µM throughout. The TGI in [14], in assay [15] and in assay [16] was more than 100 µM throughout.
Take `Clc1ccc(-c2ccc(-c3nn4c(CNc5ccccc5)nnc4s3)o2)c(Cl)c1`: the TGI in [1], in [2], in assay [17], in assay [3], in [18] and in [4] was more than 100 µM each time. Also, the TGI in [5] is more than 100 µM; in [6], more than 100 µM; in assay [7], more than 100 µM; in assay [8] it was 86.2 µM; in assay [9], more than 100 µM; in assay [10], more than 100 µM. Further, the TGI in [20], in assay [11], in assay [12], in assay [13], in assay [14] and in assay [15] was more than 100 µM in each case. Further, in [16], the TGI is more than 100 µM.
`COc1ccc(C=C(c2ccc(OCc3ccccc3)cc2)c2ccc(OCc3ccccc3)cc2)cc1`: the TGI in [1], in assay [2], in assay [17], in assay [3], in assay [4] and in assay [5] was more than 100 µM each time. Further, the TGI in assay [6], in [7], in [8], in assay [9], in assay [10] and in assay [11] was more than 100 µM each time. Also, the TGI in assay [12], in assay [13], in assay [15] and in [16] was more than 100 µM in each case.
Regarding `COc1ccc2[nH]cc(CCNC(=O)[C@](O)(Cc3cn(C)c4ccccc34)[C@@]3(O)OCC(O)C3O)c2c1` (stereo not given in full), the TGI in assay [1], in assay [2], in [17], in assay [3], in [4] and in [5] was more than 100 µM throughout. The TGI in assay [6], in [7], in assay [8], in assay [9], in assay [10] and in assay [11] was more than 100 µM throughout. Further, the TGI in assay [12], in assay [13], in assay [15] and in [16] was more than 100 µM each time.
